Experimental findings from US20060281806A1, “Treatment and inhibition of disease conditions using flexible heteroarotinoids” (priority 2005, published 2006) are described below.

Entries after “also recorded” stand apart in the source; their conditions may differ.

One data set has as its system Raldh2 −/− embryos. Put plainly: Rescue of Raldh2 −/− embryos and teratogenesis. The class given is in vivo, mouse. The following applies: for No. of −/− rescued / No. of −/− unrescued / Teratogenesis (no. of embryos): E10.25 embryos. On the procedure:
Dosages varied from 0.025 to 25 mg/kg.

The test system of data set [1] is Thymidine Phosphorylase (TP). Nature of the data set: Real time rt-PCR and Western blot validation, TP. The class given is cell-based. Particulars: 1 μM (rt-PCR, OVCAR-3) and 10 μM (Western blot, A2780). Here is the method: FIG. 13. Real Time rt-PCR validation of SHetA2 inhibition of TP and TSP-1 mRNA Expression. OVCAR-3 cultures were treated with 1 μM SHetA2 for the indicated period of time prior to harvesting the cells and isolating RNA. cDNA was prepared and used in real time rt-PCR reactions. Real time rt-PCR was performed on CDNA from cultures various treatment times.
FIG. 14. Western blot validation of SHetA2 inhibition of TP and TSP4 protein expression. A2780 ovarian cancer cells were treated with 10 μM SHetA2 for the indicated amounts of time. Equal amounts of whole cell protein extracts were evaluated by Western blot.
In general terms: In qPCR the cycle at which signal appears reflects the starting amount.

Data set [2] has as its system ovarian carcinoma organotypic cultures. Put plainly: Organotypic culture model of ovarian tumors. In kind it is cell-based, human. Particulars: 1 μM retinoid in media; 3, 7 or 14 days. Here is the method:
FIG. 17. Retinoid effects on ovarian carcinoma organotypic cultures. Organotypic cultures of OVCAR-3 (A, B, E, F, I and J), Caov-3 (C and G), SK-OV-3 (D and H), and O2 (K and L) were grown in the absence (−, top row and K) or presence (+, middle row and I, J and L) of retinoid HetA4 at a concentration of 1 μM in the media. All sections were stained with H&E except for I, which was stained with PAS to detect glycoproteins and glandular differentiantion, and J, which was stained with the TUNEL assay to detect apoptosis. All magnifications are 40×.
To test our hypotheses, we evaluated the effects of clinically achievable concentrations of 4-HPR and Flex-Hets on growth, differentiation and apoptosis in ovarian tissue. A series of compounds with a variety of receptor activation profiles were evaluated. In order to evaluate therapeutic effects, we developed an organotypic culture model of ovarian tumors by growing established cell lines and primary cultures inside collagen gels. Monolayer cultures of cells are not accurate representations of in vivo tissue because they lack the types of interactions that cells have with other cells and with the extracellular matrix in vivo. These interactions are known to influence gene expression and thus the constitution and behavior of cells. In our organotypic model, the growth of tumor cells inside the collagen allows a representation of tumors that have invaded stromal tissue. In the presence of fibroblasts, established cell lines and primary cultures of ovarian cancer formed colonies inside the collagen, while normal or benign ovarian epithelial cells remained as single cells inside the collagen. Human ovarian cancer cell lines (OVCAR-3, Caov-3, SK-OV-3, A2780, UCI 101) and primary human cultures (borderline ovarian tumor (O1), serous papillary tumor (O2), benign ovarian cyst (O3)) were cultured inside and on top of a collagen gel seeded with 3T3 fibroblasts for one week. After further incubation in the presence or absence of 1 μM retinoid (media concentration) for 3, 7 or 14 days, cultures were fixed and sectioned for immunohistochemical analysis.

For data set [3], the system named is SiHa human cervical cell line. Nature of the data set: In vitro cytotoxicity (SRB growth inhibition) assay, SiHa. The class given is cell-based. Also noted: dose or concentration left out as unconfirmed. Particulars: 72 h. Here is the method:
(§1) The SHetA2, SHetA3, SHetA4, SHet50 and 9-cis-RA compounds were evaluated in 4 cervical carcinoma cell lines. The SiHa, CC-1 and C33a human cervical cell lines were maintained in Minimal Essential Media (MEM) containing Earle's salts and L-glutamine supplemented with nonessential amino acids, 1% sodium pyruvate, 10% fetal bovine serum (FBS) and antibiotic/antimycotic. The HT-3 cervical carcinoma cell line was cultured in McCoy's 5a medium supplemented with 10% FBS and antibiotic/antimycotic. Cells were inoculated into 96 well microtiter plates at densities of 1000 cells/well and incubated for 24 h prior to addition of drugs. Drugs were dissolved in dimethyl sulfoxide (DMSO) and diluted in complete medium, prior to addition to triplicate culture wells to achieve final concentrations of […]. Following drug addition, the plates were incubated for 72 h. The assay was terminated by the addition of cold TCA and the cells were stained with 0.4% sulforhodamine B (SRB) in 1% acetic acid. Bound stain was subsequently solubilized with 10 mM trizma base, and the absorbance was read on an automated plate reader at a wavelength of 560 nm. Growth inhibition was determined by dividing the average Optical Density (OD) of the triplicated treated cultures by the average OD of the triplicate control cultures treated with DMSO solvent only. This ratio was converted into a percentage by multiplying by 100. The potency (concentration required to induce half of the maximal activity—GI50) were derived from dose-response graphs generated with results from 3 to 5 individual experiments using GraphPad Software.

The subject of the next data set is B16 mouse melanoma. Put plainly: B16 melanoma syngeneic tumor model. In kind it is in vivo. Particulars: oral 60 mg/kg/day. On the procedure: FIG. 12. Various Xenograft tumors stained with CD34 antibodies (brown) to identify endothelium. The B16 mouse melanoma cell line was established as a syngeneic tumor in an immunocompetent mouse model and the human Caki renal cancer and A2780 ovarian xenograft tumors in immunocompromised mice. The treated mice were gavaged with 60 mg/kg/day SHetA2 and the untreated were gavaged with solvent only. The tumors were excised and sections were stained with the anti-CD34 antibody to detect endothelial cells (brown stain).
Survival was the primary endpoint of those studies. […] Tumor growth was the primary endpoint of the renal cancer study.

Data set [4] deals with HT-3 cervical carcinoma cell line. Put plainly: In vitro cytotoxicity (SRB growth inhibition) assay, HT-3. Also noted: dose or concentration left out as unconfirmed. Particulars: 72 h. The class given is cell-based, human. Here is the method: as §1
Setting [5] is: dose 2.5 mg/kg oral to pregnant mice.
Where [6] appears, read: dose 10 mg/kg oral to pregnant mice.
Setting [7] is: dose 25 mg/kg oral to pregnant mice.

For the molecule `CC1(C)CC(C)(C)c2cc(NC(=S)Nc3ccc([N+](=O)[O-])cc3)ccc2S1` [SHetA2], the “rescue of Raldh2 −/− embryos (phenotype)” value in the data set with Raldh2 −/− embryos (2.5 mg/kg to pregnant mothers) and with Raldh2 −/− embryos (10 or 25 mg/kg to pregnant mothers) was “no rescue” each time. Also, the teratogenesis in litters entry in the data set on Raldh2 −/− embryos (any dosage (2.5, 10, 25 mg/kg)) is recorded as “no teratogenesis was observed”. The “No. of −/− rescued” value in the data set with Raldh2 −/− embryos (setting [5]), with Raldh2 −/− embryos (setting [6]) and in the data set on Raldh2 −/− embryos (setting [7]) was 0 throughout. Moreover, the “No. of −/− unrescued” value is 1 in the data set with Raldh2 −/− embryos (setting [5]), 5 in the data set with Raldh2 −/− embryos (setting [6]) and 1 with Raldh2 −/− embryos (setting [7]). In addition, the “Teratogenesis (no. of embryos)” value with Raldh2 −/− embryos (setting [5]), with Raldh2 −/− embryos (setting [6]) and in the data set on Raldh2 −/− embryos (setting [7]) was 0 each time. Besides, the “expression of TP at the RNA and protein levels” value in data set [1] is recorded as “inhibit expression”. The “induction of apoptosis (TUNEL) in organotypic cultures” value in data set [2] is “Apoptosis was induced; also recorded: highest level of apoptosis”. In addition, in data set [2], the “regulation of growth, differentiation and apoptosis, rank among eleven retinoids” value is “most potent regulator of growth, differentiation and apoptosis”. The “Efficacy: percent growth inhibition relative to the untreated control” value came out at 68% in data set [3] and 92% in data set [4]. The survival entry with B16 mouse melanoma (melanoma model) was “improved survival”. Further, in the data set with B16 mouse melanoma (melanoma), the “development of blood vessels inside tumors (anti-CD34 staining)” value was “inhibited the development of blood vessels”.
